# Like-named read-outs stand apart in the source and are kept apart here.
# Columns and labels:
# [1] = Rosenberg and Bottiroli, Proc. Soc. Exp. Biol. 1964; cited from earlier work
# [2] = system: Plasmodium berghei; settings: Plasmodium berghei in mice; Rees et al, J. Med. Chem., 1972 15, 859; cited from earlier work
# [3] = cited from earlier work; for toxicity: J. Med. Chem., 1972 15, 859
# [4] = anticonvulsant activity, standard maximal electroshock test (MES); assay type: in vivo, mice; settings: Mus musculus, po, read-out: ED50, MES
# Method: The anticonvulsant activity of certain compounds of the present invention was determined by a standard maximal electroshock test, that described by L. A. Woodbury and V. D. Davenport, Arch. Int. Pharmacodyn.: 1952, 92, 97.
# [5] = LD50 in mice, p.o.; settings: mouse, in vivo, po, dose for which 50% of the animals survive 10 days after administration
# Method: (§1) The LD50's (expressed in mg/kg, p.o.) of 3,5-diamino-6-(2,3-dichlorophenyl)-1,2,4-triazine and 3,5-diamino-6-(2,5-dichlorophenyl)-1,2,4,-triazine were determined in mice and rats. The LD50 described is the dose for which 50% of the animals survive 10 days after administration of the compound.
# [6] = LD50 in rats, p.o.; settings: rat, in vivo, po, dose for which 50% of the animals survive 10 days after administration
# Method: as §1
# [7] = mice, p.o., maximal electroshock, Table 4 (naphthyl compounds)
# [8] = mice, p.o., maximal electroshock, Table 3
smiles,measurement,setting,value
CCN(CCO)CCCC(C)Nc1ccnc2cc(Cl)ccc12 (stereo not drawn) [hydroxychloroquine],anticonvulsant activity profile,[1],favourable activity profile
Nc1nnc(-c2ccc(Cl)cc2)c(N)n1 [4-chlorophenyl],antimalarial activity,[2],active against the malaria organism Plasmodium berghei in mice
same,toxicity,[3]; Rees et al,toxic at curative doses
same,therapeutic ratio,"[3]; malaria, Rees et al",low therapeutic ratio
"Nc1nnc(-c2cc(Cl)cc3ccccc23)c(N)n1 [3-Cl, 3,5-diamino-6-(3-chloro-1-naphthyl)-1,2,4-triazine]",ED50,[4]; [7],6.5 mg/kg
"Nc1nnc(-c2cccc3ccccc23)c(N)n1 [H, 3,5-diamino-6-(1-naphthyl)-1,2,4-triazine]",ED50,[4]; [7],2.9 mg/kg
"CC(=O)Nc1nc(N)nnc1-c1cccc(Cl)c1Cl [2,3-Cl2 NHCOCH3, 5-acetamido-3-amino-6-(2,3-dichlorophenyl)-1,2,4-triazine]",ED50,[4]; [8],5 mg/kg
"Nc1nnc(-c2cccc(Cl)c2Cl)c(N)n1 [2,3-Cl2 NH2, 3,5-diamino-6-(2,3-dichlorophenyl)-1,2,4-triazine]",ED50,[4],2.4 mg/kg
same,LD50 at 240 h,[5],250 mg/kg
same,LD50 at 240 h,[6],> 640 mg/kg
"Cc1ccc2ccccc2c1-c1nnc(N)nc1N [2-Me, 3,5-diamino-6-(2-methyl-1-naphthyl)-1,2,4-triazine]",ED50,[4]; [7],16.5 mg/kg
"Nc1nnc(-c2cc(Br)ccc2Cl)c(N)n1 [2-Cl, 5-Br NH2, 3,5-diamino-6-(5-bromo-2-chlorophenyl)-1,2,4-triazine]",ED50,[4]; [8],6 mg/kg
"CN(C)C=Nc1nc(N)nnc1-c1cccc(Cl)c1Cl.O=C(O)C(=O)O [2,3-Cl2 NCHNMe2, 3-amino-6-(2,3-dichlorophenyl)-5-dimethylaminomethyleneamino-1,2,4-triazine oxalate]",ED50,[4]; [8],5 mg/kg
"Cc1ccccc1-c1nnc(N)nc1N [2-Me NH2, 3,5-diamino-6-(2-methylphenyl)-1,2,4-triazine]",ED50,[4]; [8],15 mg/kg
"Nc1nnc(-c2ccccc2C(F)(F)F)c(N)n1 [2-CF3 NH2, 3,5-diamino-6-(2-trifluoromethylphenyl)-1,2,4-triazine]",ED50,[4]; [8],20 mg/kg
"Nc1nnc(-c2ccc(Cl)c(Cl)c2)c(N)n1 [3,4-dichlorophenyl]",antimalarial activity,[2],active against the malaria organism Plasmodium berghei in mice
same,toxicity,[3]; Rees et al,toxic at curative doses
same,therapeutic ratio,"[3]; mouse, in vivo",low therapeutic ratio
"Nc1nnc(-c2cc(Cl)ccc2Cl)c(N)n1 [2,5-Cl2 NH2, 3,5-diamino-6-(2,5-dichlorophenyl)-1,2,4-triazine]",ED50,[4]; [8],3.3 mg/kg
same,LD50 at 240 h,[5],708 mg/kg
same,LD50 at 240 h,[6],> 640 mg/kg
"Nc1nnc(-c2ccccc2Br)c(N)n1 [2-Br NH2, 3,5-diamino-6-(2-bromophenyl)-1,2,4-triazine]",ED50,[4]; [8],8.5 mg/kg
"Nc1nnc(-c2cc(Cl)cc(Cl)c2Cl)c(N)n1 [2,3,5-Cl3 NH2, 3,5-diamino-6-(2,3,5-trichlorophenyl)-1,2,4-triazine]",ED50,[4]; [8],0.65 mg/kg
"Nc1nnc(-c2ccc(Br)cc2Cl)c(N)n1 [2-Cl, 4-Br NH2, 3,5-diamino-6-(4-bromo-2-chlorophenyl)-1,2,4-triazine]",ED50,[4]; [8],12.8 mg/kg
"Nc1nnc(-c2ccc(Cl)cc2Cl)c(N)n1 [2,4-dichlorophenyl]",antimalarial activity,[2],only slight antimalarial activity
Nc1nnc(-c2ccc(C(F)(F)F)cc2)c(N)n1 [4-trifluoromethylphenyl],antimalarial activity,[2],still being active against malaria
same,toxicity,[3]; Rees et al,less toxic than the chlorophenyl compounds
"Nc1nnc(-c2cc(Cl)ccc2Br)c(N)n1 [2-Br, 5-Cl NH2, 3,5-diamino-6-(2-5-chlorophenyl)-1,2,4-triazine]",ED50,[4]; [8],4.6 mg/kg
"Nc1nnc(-c2c(F)cccc2Cl)c(N)n1 [2-Cl, 6-F NH2, 3,5-diamino-6-(2-chloro-6-fluorophenyl)-1,2,4-triazine]",ED50,[4]; [8],12.2 mg/kg
"Nc1nnc(-c2ccccc2I)c(N)n1 [2-I NH2, 3,5-diamino-6-(2-iodophenyl)-1,2,4-triazine]",ED50,[4]; [8],11.8 mg/kg

# Source: patent US4602017A, “Substituted aromatic compounds” (priority 1979, dated 1986)
